Measured values from patent US9278990B2, “Substituted nucleotide analogs” (priority 2010, dated 2016).

Tested on: Huh-7 cells containing the self-replicating, subgenomic HCV replicon
Assay: HCV replicon assay (luciferase reporter)
Format: cell-based
Settings: Hepatitis C virus, Huh-7, 72 h
Protocol: Huh-7 cells containing the self-replicating, subgenomic HCV replicon with a stable luciferase (LUC) reporter were cultured in Dulbecco's modified Eagle's medium (DMEM) containing 2 mM L-glutamine and supplemented with 10% heat-inactivated fetal bovine serum (FBS), 1% penicillin-streptomyocin, 1% nonessential amino acids, and 0.5 mg/mL G418.
On the first day, 5,000 HCV replicon cells were plated per well in a 96-well plate. On the following day, test compounds were solubilized in 100% DMSO to 100× the desired final testing concentration. Each compound was then serially diluted (1:3) up to 9 different concentrations. Compounds in 100% DMSO are reduced to 10% DMSO by diluting 1:10 in cell culture media. The compounds were diluted to 10% DMSO with cell culture media, which were used to dose the HCV replicon cells in 96-well format. The final DMSO concentration was 1%. The HCV replicon cells were incubated at 37° C. for 72 hours. At 72 hours, cells were processed when the cells are still subconfluent. Compounds that reduce the LUC signal are determined by Bright-Glo Luciferase Assay (Promega, Madison, Wis.). Percent Inhibition was determined for each compound concentration in relation to the control cells (untreated HCV replicon) to calculate the EC50.

SMILES | EC50 [nM]
CC(C)OC(=O)[C@H](C)NP(=S)(OC[C@H]1O[C@@H](n2ccc(=O)[nH]c2=O)[C@](C)(F)[C@@H]1O)Oc1ccccc1 (some centres unmarked) | 1000 to 10000
CC(C)OC(=O)[C@H](C)NP(=S)(OC[C@H]1O[C@@H](n2cnc3c(Cl)nc(N)nc32)[C@](C)(O)[C@@H]1O)Oc1ccccc1 (some centres unmarked) | < 1000
C[C@H](NP(=S)(OC[C@H]1O[C@@H](n2cnc3c(=O)[nH]c(N)nc32)[C@](C)(O)[C@@H]1O)Oc1ccccc1)C(=O)OC1CCCCC1 (some centres unmarked) | < 1000
CC(C)OC(=O)[C@H](C)NP(=S)(OC[C@H]1O[C@@H](n2ccc(=O)[nH]c2=O)[C@](C)(O)[C@@H]1OC(=O)C(C)C)Oc1ccccc1 (some centres unmarked) | < 1000
C[C@H](NP(=S)(OC[C@H]1O[C@@H](n2cnc3c(=O)[nH]c(N)nc32)[C@](C)(O)[C@@H]1O)Oc1ccccc1)C(=O)OCC(C)(C)C (some centres unmarked) | < 1000
C[C@H](NP(=S)(OC[C@H]1O[C@@H](n2cnc3c(N)ncnc32)[C@](C)(O)[C@@H]1O)Oc1ccccc1)C(=O)OCC(C)(C)C (some centres unmarked) | < 1000
[2H]C([2H])(OP(=S)(N[C@@H](C)C(=O)OC(C)C)Oc1ccccc1)[C@H]1O[C@@H](n2ccc(=O)[nH]c2=O)[C@](C)(O)[C@@H]1O (some centres unmarked) | < 1000
CC(C)OC(=O)CNP(=S)(OC[C@H]1O[C@@H](n2ccc(=O)[nH]c2=O)[C@](C)(O)[C@@H]1O)Oc1ccccc1 (some centres unmarked) | 1000 to 10000
[2H]C([2H])(OP(=S)(N[C@@H](C)C(=O)OC(C)C)Oc1ccccc1)[C@H]1O[C@@H](n2ccc(=O)[nH]c2=O)[C@](C)(O)[C@@H]1OC(C)=O (some centres unmarked) | < 1000
CC(C)OC(=O)C(C)NP(=S)(OC[C@@]1(N=[N+]=[N-])O[C@@H](n2ccc(=O)[nH]c2=O)[C@H](O)[C@@H]1O)Oc1ccccc1 (some centres unmarked) | 10000 to 100000
CSCC[C@H](NP(=S)(OC[C@H]1O[C@@H](n2ccc(=O)[nH]c2=O)[C@](C)(O)[C@@H]1O)Oc1ccccc1)C(=O)OC(C)C (some centres unmarked) | 1000 to 10000
CC(C)OC(=O)[C@H](C)NP(=S)(OC[C@H]1O[C@@H](n2ccc(=O)[nH]c2=O)[C@](C)(O)[C@@H]1O)Oc1ccc(F)c(Cl)c1 (some centres unmarked) | < 1000
C[C@H](NP(=S)(OC[C@H]1O[C@@H](n2ccc(=O)[nH]c2=O)[C@](C)(O)[C@@H]1O)Oc1cccc2ccccc12)C(=O)OC1CCCCC1 (some centres unmarked) | < 1000
C[C@H](NP(=S)(OC[C@@]1(N=[N+]=[N-])O[C@@H](n2ccc(=O)[nH]c2=O)[C@H](O)[C@@H]1O)Oc1ccccc1)C(=O)OCC(C)(C)C (some centres unmarked) | 10000 to 100000
COc1nc(N)nc2c1ncn2[C@@H]1O[C@H](COP(=S)(N[C@@H](C)C(=O)OC2CCCCC2)Oc2cccc3ccccc23)[C@@H](O)[C@@]1(C)O (some centres unmarked) | < 1000
C[C@H](NP(=S)(OC[C@H]1O[C@@H](n2ccc(=O)[nH]c2=O)[C@](C)(O)[C@@H]1O)Oc1ccccc1)C(=O)OCC(C)(C)C (some centres unmarked) | < 1000
CC(C)OC(=O)C(C)NP(=S)(OC[C@H]1O[C@@H](n2cnc3c(=O)[nH]c(N)nc32)C(C)(O)C1O)Oc1ccccc1 (some centres unmarked) | < 1000
CC(C)OC(=O)[C@@H](NP(=S)(OC[C@H]1O[C@@H](n2ccc(=O)[nH]c2=O)[C@](C)(O)[C@@H]1O)Oc1ccccc1)C(C)C (some centres unmarked) | 10000 to 100000
COc1nc(N)nc2c1ncn2[C@@H]1O[C@H](COP(=S)(N[C@@H](C)C(=O)OCC(C)(C)C)Oc2cccc3ccccc23)[C@@H](O)[C@@]1(C)O (some centres unmarked) | < 1000

SMILES | EC50 [nM]
COc1nc(N)nc2c1ncn2[C@@H]1O[C@H](COP(=S)(N[C@@H](C)C(=O)OC(C)C)Oc2ccccc2)[C@@H](O)[C@@]1(C)F (some centres unmarked) | < 1000
C[C@H](NP(=S)(OC[C@H]1O[C@@H](n2ccc(=O)[nH]c2=O)[C@](C)(F)[C@@H]1O)Oc1ccccc1)C(=O)OC1CCCCC1 (some centres unmarked) | < 1000
CC(C)OC(=O)[C@H](C)NP(=S)(OC[C@H]1O[C@@H](n2ccc(=O)[nH]c2=O)[C@](C)(OC(=O)C(C)C)[C@@H]1OC(=O)C(C)C)Oc1ccccc1 (some centres unmarked) | < 1000
CC(C)C[C@H](NP(=S)(OC[C@H]1O[C@@H](n2ccc(=O)[nH]c2=O)[C@](C)(O)[C@@H]1O)Oc1ccccc1)C(=O)OC(C)C (some centres unmarked) | 1000 to 10000
CC(C)OC(=O)[C@H](C)NP(=S)(OC[C@H]1O[C@@H](n2ccc(=O)[nH]c2=O)[C@](C)(O)[C@@H]1O)Oc1ccccc1Cl (some centres unmarked) | < 1000
CC(C)OC(=O)[C@H](Cc1ccccc1)NP(=S)(OC[C@H]1O[C@@H](n2ccc(=O)[nH]c2=O)[C@](C)(O)[C@@H]1O)Oc1ccccc1 (some centres unmarked) | 1000 to 10000
C=CCNc1nc(N)nc2c1ncn2[C@@H]1O[C@H](COP(=S)(N[C@@H](C)C(=O)OC(C)C)Oc2ccccc2)[C@@H](O)[C@@]1(C)O (some centres unmarked) | < 1000
CC(C)OC(=O)[C@H](C)NP(=S)(OC[C@H]1O[C@@H](n2cnc3c(=O)[nH]c(N)nc32)[C@](C)(O)[C@@H]1O)Oc1ccccc1 (some centres unmarked) | < 1000
CC(C)OC(=O)[C@H](C)NP(=S)(OC[C@@]1(N=[N+]=[N-])O[C@@H](n2ccc(=O)[nH]c2=O)[C@H](O)[C@@H]1O)Oc1ccccc1 (some centres unmarked) | 10000 to 100000
CC(C)OC(=O)[C@H](C)NP(=S)(OC[C@H]1O[C@@H](n2ccc(=O)[nH]c2=O)[C@](C)(O)[C@@H]1O)Oc1ccccc1 (some centres unmarked) | < 1000
COc1nc(N)nc2c1ncn2[C@@H]1O[C@H](COP(=S)(N[C@@H](C)C(=O)OCC(C)(C)C)Oc2ccccc2)[C@@H](O)[C@@]1(C)O (some centres unmarked) | < 1000
Cc1ccc(OP(=S)(N[C@@H](C)C(=O)OC(C)C)OC[C@H]2O[C@@H](n3ccc(=O)[nH]c3=O)[C@](C)(O)[C@@H]2O)cc1 (some centres unmarked) | < 1000
CC(C)OC(=O)[C@H](C)NP(=S)(OC[C@H]1O[C@@H](n2cnc3c(N)ncnc32)[C@](C)(O)[C@@H]1O)Oc1cccc2ccccc12 (some centres unmarked) | < 1000
CC(C)OC(=O)[C@H](C)NP(=S)(OC[C@H]1O[C@@H](n2cnc3c(NC4CC4)nc(N)nc32)[C@](C)(O)[C@@H]1O)Oc1ccccc1 (some centres unmarked) | < 1000
C[C@H](NP(=S)(OC[C@H]1O[C@@H](n2cnc3c(=O)[nH]c(N)nc32)[C@](C)(F)[C@@H]1O)Oc1ccccc1)C(=O)OCC(C)(C)C (some centres unmarked) | < 1000
Cc1ccccc1OP(=S)(N[C@@H](C)C(=O)OC(C)C)OC[C@H]1O[C@@H](n2ccc(=O)[nH]c2=O)[C@](C)(O)[C@@H]1O (some centres unmarked) | < 1000
COc1nc(N)nc2c1ncn2[C@@H]1O[C@H](COP(=S)(N[C@@H](C)C(=O)OC(C)C)Oc2ccccc2)[C@@H](O)[C@@]1(C)O (some centres unmarked) | < 1000
C[C@H](NP(=S)(OC[C@H]1O[C@@H](n2ccc(=O)[nH]c2=O)[C@](C)(F)[C@@H]1O)Oc1ccccc1)C(=O)OCC(C)(C)C (some centres unmarked) | < 1000
CC(C)OC(=O)[C@H](C)NP(=S)(OC[C@H]1O[C@@H](n2cnc3c(N)nc(N)nc32)[C@](C)(O)[C@@H]1O)Oc1ccccc1 (some centres unmarked) | < 1000

SMILES | EC50 [nM]
CC(C)OC(=O)[C@H](C)NP(=S)(OC[C@H]1O[C@@H](n2ccc(=O)[nH]c2=O)[C@](C)(O)[C@@H]1O)Oc1cccc2ccccc12 (some centres unmarked) | < 1000
CCC[C@H](NP(=S)(OC[C@H]1O[C@@H](n2ccc(=O)[nH]c2=O)[C@](C)(O)[C@@H]1O)Oc1ccccc1)C(=O)OC(C)C (some centres unmarked) | < 1000
COc1nc(N)nc2c1ncn2[C@@H]1O[C@H](COP(=S)(NC(C)C(=O)OC(C)C)Oc2ccccc2)C(O)C1(C)O (some centres unmarked) | < 1000
C[C@H](NP(=S)(OC[C@H]1O[C@@H](n2ccc(=O)[nH]c2=O)[C@](C)(O)[C@@H]1O)Oc1ccccc1)C(=O)OC1CCCCC1 (some centres unmarked) | < 1000
COC(=O)[C@H](C)NP(=S)(OC[C@H]1O[C@@H](n2ccc(=O)[nH]c2=O)[C@](C)(O)[C@@H]1O)Oc1cccc2ccccc12 (some centres unmarked) | < 1000
COc1nc(N)nc2c1ncn2[C@@H]1O[C@H](COP(=S)(NC(C)C(=O)OC(C)C)Oc2ccccc2)C(O)C1(C)F (some centres unmarked) | < 1000
COc1nc(N)nc2c1ncn2[C@@H]1O[C@H](COP(=S)(N[C@@H](C)C(=O)OC2CCCCC2)Oc2ccccc2)[C@@H](O)[C@@]1(C)O (some centres unmarked) | < 1000
CC(C)OC(=O)[C@H](C)NP(=S)(OC[C@H]1O[C@@H](n2ccc(=O)[nH]c2=O)[C@](C)(O)[C@@H]1O)Oc1ccc(Cl)cc1 (some centres unmarked) | < 1000
CC(C)OC(=O)[C@H](C)N[P@](=S)(OC[C@H]1O[C@@H](n2ccc(=O)[nH]c2=O)[C@](C)(O)[C@@H]1O)Oc1ccccc1 | < 1000
CC(C)OC(=O)[C@H](C)NP(=S)(OC[C@H]1O[C@@H](n2ccc(=O)[nH]c2=O)[C@](C)(O)[C@@H]1O)Oc1cccc2ncccc12 (some centres unmarked) | < 1000
CC(C)OC(=O)[C@H](C)N[P@@](=S)(OC[C@H]1O[C@@H](n2ccc(=O)[nH]c2=O)[C@](C)(O)[C@@H]1O)Oc1ccccc1 | < 1000
CC(C)OC(=O)[C@H](C)NP(=S)(OC[C@H]1O[C@@H](n2ccc(=O)[nH]c2=O)[C@](C)(O)[C@@H]1O)Oc1cccnc1 (some centres unmarked) | < 1000
CC[C@H](NP(=S)(OC[C@H]1O[C@@H](n2ccc(=O)[nH]c2=O)[C@](C)(O)[C@@H]1O)Oc1ccccc1)C(=O)OC(C)C (some centres unmarked) | < 1000
CC(C)OC(=O)[C@H](C)NP(=S)(OC[C@H]1O[C@@H](n2ccc(=O)[nH]c2=O)[C@](C)(O)[C@@H]1O)Oc1ccc(F)cc1 (some centres unmarked) | < 1000
CCC(=O)O[C@@H]1[C@@H](COP(=S)(N[C@@H](C)C(=O)OC(C)C)Oc2ccccc2)O[C@@H](n2ccc(=O)[nH]c2=O)[C@]1(C)O (some centres unmarked) | < 1000
COc1ccc(OP(=S)(N[C@@H](C)C(=O)OC(C)C)OC[C@H]2O[C@@H](n3ccc(=O)[nH]c3=O)[C@](C)(O)[C@@H]2O)cc1 (some centres unmarked) | < 1000
CCC(=O)O[C@@H]1[C@@H](COP(=S)(N[C@@H](C)C(=O)OC(C)C)Oc2ccccc2)O[C@@H](n2ccc(=O)[nH]c2=O)[C@]1(C)OC(=O)CC (some centres unmarked) | < 1000
C[C@H](NP(=S)(OC[C@H]1O[C@@H](n2ccc(=O)[nH]c2=O)[C@](C)(O)[C@@H]1O)Oc1cccc2ccccc12)C(=O)OCC(C)(C)C (some centres unmarked) | < 1000
